Results as given in ChEMBL document CHEMBL1201862, “PubChem BioAssay data set” (2004).
Calls of active or inactive are those of the source.

Columns and labels:
[1] = viability of uninfected HEp-2 cells – cell-based, HTS, cytotoxicity control for RSV inhibitor project, dose response (AID 2410); type: functional; details: human respiratory syncytial virus
[2] = biological target: T1, Voltage-dependent T-type calcium channel subunit alpha-1H (Homo sapiens, UniProt O95180); type: functional
[3] = biological target: T1, Voltage-dependent T-type calcium channel subunit alpha-1H; assay: Inhibitors of T-Type Calcium Channels. [Related pubchem assays (depositor defined):AID449739, AID463087, AID489005, AID493041, AID504579, AID504584, AID504619, AID504628]; type: functional
[4] = biological target: Cyclin-dependent kinase 5/CDK5 activator 1 (Homo sapiens, UniProt Q00535); assay: blockade of human CDK5 activity – biochemical, cherry-picked samples, set 2, dose response (AID 504545)
[5] = biological target: Cystic fibrosis transmembrane conductance regulator/Golgi-associated PDZ and coiled-coil motif-containing protein (Homo sapiens, UniProt P13569+Q9HD26); assay: potency against CAL PDZ-peptide interaction – biochemical, fluorescence polarization, Cerulean-tagged CAL PDZ, cherry-picks, dose response (AID 504773)
[6] = NIH-3T3 fibroblast cytotoxicity, dose response, cytotoxicity control, cell-based, fluorescence, Alamar Blue, secondary assay (AID 2327); type: functional;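 note: NIH-3T3 mouse fibroblasts cultured with fluconazole at 8 µg/mL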
[7] = biological target: T2, Neuropeptide Y receptor type 1 (Homo sapiens, UniProt P25929); type: functional;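 note: HEK293 cells with a CNG channel challenged with NPY then isoproterenol; potency as antagonist that reverses NPY suppression of cAMP signal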
T2 sequence (P25929 whole entry): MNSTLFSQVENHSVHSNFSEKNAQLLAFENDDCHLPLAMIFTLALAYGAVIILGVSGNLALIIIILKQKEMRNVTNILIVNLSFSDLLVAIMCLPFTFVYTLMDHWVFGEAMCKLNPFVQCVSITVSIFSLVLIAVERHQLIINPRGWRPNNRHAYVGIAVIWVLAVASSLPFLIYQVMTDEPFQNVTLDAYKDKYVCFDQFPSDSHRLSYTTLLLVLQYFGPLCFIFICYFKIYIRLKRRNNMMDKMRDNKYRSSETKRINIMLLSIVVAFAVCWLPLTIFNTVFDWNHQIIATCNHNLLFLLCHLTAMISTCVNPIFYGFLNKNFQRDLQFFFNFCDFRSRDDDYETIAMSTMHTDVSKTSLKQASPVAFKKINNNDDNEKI

[8] = fluconazole-exposed Candida albicans growth modulators – fluorescence, retest, confirmation (AID 2467); type: functional, cell-based
[9] = biological target: T3, Neuropeptide Y receptor type 2 (Homo sapiens, UniProt P49146); type: functional, cell-based;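 note: HEK293 cells expressing the receptor and a CNG channel; stimulus was NPY near EC95 followed by isoproterenol to raise cAMP; antagonist potency measured as restoring cAMP signal that NPY suppresses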
T3 sequence (P49146 whole entry): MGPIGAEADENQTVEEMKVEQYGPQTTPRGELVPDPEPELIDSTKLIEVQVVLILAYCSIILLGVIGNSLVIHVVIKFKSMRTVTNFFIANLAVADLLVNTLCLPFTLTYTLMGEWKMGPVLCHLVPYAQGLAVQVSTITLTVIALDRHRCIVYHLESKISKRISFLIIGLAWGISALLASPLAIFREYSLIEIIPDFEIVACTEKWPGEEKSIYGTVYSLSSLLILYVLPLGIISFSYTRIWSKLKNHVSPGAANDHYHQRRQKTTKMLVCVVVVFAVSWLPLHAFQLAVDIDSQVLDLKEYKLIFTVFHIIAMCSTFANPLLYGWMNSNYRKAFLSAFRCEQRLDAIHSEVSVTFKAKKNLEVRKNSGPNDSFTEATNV

[10] = viability of PTEN-deleted HCT116 cells – cell-based, HCT116 PTEN knockout, dose response (AID 1047); type: functional;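 note: HCT116 colon tumor cells with PTEN knocked out; cells exposed to compound for 60 hours before readout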
[11] = viability of HCT116 lacking mutant beta-catenin – cell-based, human colon tumor, dose response (AID 1045); type: functional;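 note: HCT116 colon tumor cells with beta catenin knocked out; cells exposed to compound for 60 hours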
[12] = biological target: Neurotensin receptor type 1 (Homo sapiens, UniProt P30989); type: functional;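 note: Image-based confirmatory dose-response assay measuring agonist activity at NTR1; NTR1-expressing U2OS osteosarcoma cells imaged for beta-arrestin GFP spot formation; agonist potency where compounds increase beta-arrestin recruitment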
Vero [13] = assay: cells; type: functional, cell-based; details: Chlorocebus sabaeus
Vero [14] = assay: cells; type: functional; details: Chlorocebus sabaeus
Wee1-like protein kinase = Wee1-like protein kinase (Homo sapiens, UniProt P30291); assay: HeLa cell cycle G2/M accumulation – FACS, mechanism study for Wee1 degradation inhibitor project, late-stage follow-up, panel member Wee1 Degradation (AID 2088)
[15] = biological target: G2/mitotic-specific cyclin-B1 (Homo sapiens, UniProt P14635); assay: HeLa cell cycle G2/M accumulation – FACS, mechanism study for Wee1 degradation inhibitor project, late-stage follow-up, panel member Cyclin B Degradation (AID 2088)
Large T antigen = Large T antigen (Simian virus 40, UniProt P03070); type: functional, Betapolyomavirus macacae;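 note: Confirmatory-stage PubChem screen for compounds that inhibit SV40 T antigen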
[16] = microbe, parasite or virus in culture; type: functional; details: Mycobacterium tuberculosis
Hexokinase HKDC1 = biological target: T4, Hexokinase HKDC1 (Homo sapiens, UniProt Q2TB90); assay: inhibition of HKDC1 glucose phosphorylation – biochemical, W721R variant, dose response (AID 504729); type: functional
T4 sequence (Q2TB90 whole entry): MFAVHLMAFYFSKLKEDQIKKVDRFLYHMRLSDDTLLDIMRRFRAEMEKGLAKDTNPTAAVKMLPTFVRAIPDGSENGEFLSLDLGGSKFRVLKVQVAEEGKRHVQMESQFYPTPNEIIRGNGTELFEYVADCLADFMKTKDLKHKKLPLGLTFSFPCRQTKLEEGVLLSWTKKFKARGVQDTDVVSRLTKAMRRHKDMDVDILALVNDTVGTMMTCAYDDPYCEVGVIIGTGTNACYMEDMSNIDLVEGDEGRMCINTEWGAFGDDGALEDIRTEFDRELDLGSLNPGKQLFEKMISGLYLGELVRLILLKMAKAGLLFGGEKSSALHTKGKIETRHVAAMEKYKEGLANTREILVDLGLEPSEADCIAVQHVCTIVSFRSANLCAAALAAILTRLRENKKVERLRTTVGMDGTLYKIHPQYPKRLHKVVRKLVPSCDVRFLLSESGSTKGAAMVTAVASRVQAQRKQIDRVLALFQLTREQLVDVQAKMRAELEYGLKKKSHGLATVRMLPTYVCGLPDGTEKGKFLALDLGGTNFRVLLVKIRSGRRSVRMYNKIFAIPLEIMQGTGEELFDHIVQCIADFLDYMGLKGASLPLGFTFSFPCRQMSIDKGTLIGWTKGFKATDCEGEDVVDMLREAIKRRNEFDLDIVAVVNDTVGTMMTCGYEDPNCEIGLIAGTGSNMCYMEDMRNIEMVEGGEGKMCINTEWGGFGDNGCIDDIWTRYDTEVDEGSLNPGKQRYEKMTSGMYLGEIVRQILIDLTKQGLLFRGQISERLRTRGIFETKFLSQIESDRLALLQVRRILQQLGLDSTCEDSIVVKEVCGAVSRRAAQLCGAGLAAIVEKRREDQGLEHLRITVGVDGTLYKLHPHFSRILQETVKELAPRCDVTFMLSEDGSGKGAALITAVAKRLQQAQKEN

Cysteine protease ATG4B = biological target: T5, Cysteine protease ATG4B (Homo sapiens, UniProt Q9Y4P1); type: functional;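 note: Fluorescence-based dose-response confirmation assay measuring inhibition of ATG4B activity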
T5 sequence (Q9Y4P1 whole entry): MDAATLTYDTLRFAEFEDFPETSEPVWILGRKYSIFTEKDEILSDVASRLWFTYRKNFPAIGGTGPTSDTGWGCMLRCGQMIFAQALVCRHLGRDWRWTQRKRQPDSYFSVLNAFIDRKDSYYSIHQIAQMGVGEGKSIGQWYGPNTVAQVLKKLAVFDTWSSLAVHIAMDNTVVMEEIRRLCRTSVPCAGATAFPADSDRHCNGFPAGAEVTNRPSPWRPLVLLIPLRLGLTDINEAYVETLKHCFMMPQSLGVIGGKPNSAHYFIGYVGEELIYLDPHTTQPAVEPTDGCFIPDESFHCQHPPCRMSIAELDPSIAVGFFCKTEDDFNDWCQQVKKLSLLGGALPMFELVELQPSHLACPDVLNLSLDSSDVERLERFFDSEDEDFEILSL

CHO = CHO cell viability loss, potency – luminescence, cytotoxicity control for TLR9-MyD88 binding inhibitor project, dose response (AID 588339); type: functional, cell-based, hamster; details: Cricetulus griseus;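 note: CHO cells stably coexpressing TLR9 and MyD88 fusions from primary screen; compound exposure lasted 48 hours before viability readout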
Phospholipase A2 = Phospholipase A2 (Homo sapiens, UniProt P04054); type: functional;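 note: confirmatory dose-response counterscreen on phospholipase A2, testing hits that came from an ultra-high-throughput screen for ATG4B inhibitors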
[17] = biological target: T6, Apoptotic protease-activating factor 1 (Homo sapiens, UniProt O14727); type: functional
T6 sequence (O14727 whole entry): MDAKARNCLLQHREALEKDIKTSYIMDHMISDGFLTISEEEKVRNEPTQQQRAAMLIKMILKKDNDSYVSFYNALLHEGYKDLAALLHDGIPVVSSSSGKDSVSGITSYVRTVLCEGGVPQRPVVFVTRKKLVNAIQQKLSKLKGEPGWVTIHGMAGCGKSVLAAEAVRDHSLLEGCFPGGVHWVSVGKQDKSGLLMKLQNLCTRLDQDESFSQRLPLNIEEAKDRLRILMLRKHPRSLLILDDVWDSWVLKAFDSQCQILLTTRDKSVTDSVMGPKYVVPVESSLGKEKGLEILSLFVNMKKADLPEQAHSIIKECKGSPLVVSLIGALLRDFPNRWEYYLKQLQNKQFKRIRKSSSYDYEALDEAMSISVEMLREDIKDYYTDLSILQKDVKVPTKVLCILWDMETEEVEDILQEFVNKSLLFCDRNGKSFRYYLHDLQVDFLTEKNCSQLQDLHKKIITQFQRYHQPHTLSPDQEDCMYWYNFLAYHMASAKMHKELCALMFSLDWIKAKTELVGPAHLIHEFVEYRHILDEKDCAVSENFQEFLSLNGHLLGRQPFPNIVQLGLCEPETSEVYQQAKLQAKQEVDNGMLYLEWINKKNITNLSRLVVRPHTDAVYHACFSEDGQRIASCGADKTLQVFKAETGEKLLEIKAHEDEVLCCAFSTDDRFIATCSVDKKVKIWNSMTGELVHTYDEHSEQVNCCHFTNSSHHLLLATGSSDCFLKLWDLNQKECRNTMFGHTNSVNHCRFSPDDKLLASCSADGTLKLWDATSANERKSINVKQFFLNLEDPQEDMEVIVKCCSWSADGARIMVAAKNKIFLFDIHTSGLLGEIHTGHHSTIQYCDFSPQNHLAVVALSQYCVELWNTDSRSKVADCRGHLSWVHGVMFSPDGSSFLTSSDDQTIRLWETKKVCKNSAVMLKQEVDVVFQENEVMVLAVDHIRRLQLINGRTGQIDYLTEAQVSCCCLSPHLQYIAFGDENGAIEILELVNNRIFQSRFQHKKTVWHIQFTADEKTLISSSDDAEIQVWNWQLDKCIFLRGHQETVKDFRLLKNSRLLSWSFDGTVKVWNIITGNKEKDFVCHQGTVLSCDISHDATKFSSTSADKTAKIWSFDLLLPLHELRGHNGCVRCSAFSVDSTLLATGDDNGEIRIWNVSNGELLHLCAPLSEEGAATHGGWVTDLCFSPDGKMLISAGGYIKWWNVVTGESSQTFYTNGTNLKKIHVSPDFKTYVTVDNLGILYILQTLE

Beta Lactamase = Beta Lactamase (Pseudomonas aeruginosa, UniProt Q932Y6); assay: BLA reporter interference, concentration series – BLA reporter cells, FRET fluorescence, artefact control for TLR9-MyD88 binding inhibitor project, dose response (AID 588341); type: cell-based;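 note: cell based assay in CHO-K1 cells stably expressing beta-lactamase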
[18] = viability loss in HeLa cells – cytotoxicity control for MgcRacGAP inhibitor project, dose response (AID 624300); type: functional
[19] = biological target: T7, Rac GTPase-activating protein 1 (Homo sapiens, UniProt Q9H0H5); assay: blockers of MgcRacGAP-driven Rac1 GTP hydrolysis – biochemical, ADP Hunter fluorescence, primary and confirmatory, confirmation (AID 624330); type: functional
T7 sequence (Q9H0H5 whole entry): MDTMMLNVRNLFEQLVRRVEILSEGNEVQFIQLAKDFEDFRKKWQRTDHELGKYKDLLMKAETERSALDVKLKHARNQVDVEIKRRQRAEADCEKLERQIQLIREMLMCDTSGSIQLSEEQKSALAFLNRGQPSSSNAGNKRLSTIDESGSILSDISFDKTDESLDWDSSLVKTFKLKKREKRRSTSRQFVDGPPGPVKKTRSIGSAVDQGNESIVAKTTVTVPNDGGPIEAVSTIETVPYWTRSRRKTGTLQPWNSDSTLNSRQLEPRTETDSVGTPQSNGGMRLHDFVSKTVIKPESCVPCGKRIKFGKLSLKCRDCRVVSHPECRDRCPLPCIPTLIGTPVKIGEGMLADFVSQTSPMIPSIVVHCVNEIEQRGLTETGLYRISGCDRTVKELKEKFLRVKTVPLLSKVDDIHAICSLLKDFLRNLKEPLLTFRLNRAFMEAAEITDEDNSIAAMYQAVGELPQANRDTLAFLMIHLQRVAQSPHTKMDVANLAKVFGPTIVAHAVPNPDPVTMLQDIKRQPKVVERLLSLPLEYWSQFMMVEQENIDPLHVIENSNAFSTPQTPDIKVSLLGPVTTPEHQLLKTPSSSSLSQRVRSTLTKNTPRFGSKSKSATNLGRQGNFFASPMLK

Cytochrome P450 2D6 = Cytochrome P450 2D6 (Homo sapiens, UniProt P10635);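 note: CYP2D6 member of a cytochrome P450 panel assay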
Sequence of Cytochrome P450 2D6 (P10635 whole entry): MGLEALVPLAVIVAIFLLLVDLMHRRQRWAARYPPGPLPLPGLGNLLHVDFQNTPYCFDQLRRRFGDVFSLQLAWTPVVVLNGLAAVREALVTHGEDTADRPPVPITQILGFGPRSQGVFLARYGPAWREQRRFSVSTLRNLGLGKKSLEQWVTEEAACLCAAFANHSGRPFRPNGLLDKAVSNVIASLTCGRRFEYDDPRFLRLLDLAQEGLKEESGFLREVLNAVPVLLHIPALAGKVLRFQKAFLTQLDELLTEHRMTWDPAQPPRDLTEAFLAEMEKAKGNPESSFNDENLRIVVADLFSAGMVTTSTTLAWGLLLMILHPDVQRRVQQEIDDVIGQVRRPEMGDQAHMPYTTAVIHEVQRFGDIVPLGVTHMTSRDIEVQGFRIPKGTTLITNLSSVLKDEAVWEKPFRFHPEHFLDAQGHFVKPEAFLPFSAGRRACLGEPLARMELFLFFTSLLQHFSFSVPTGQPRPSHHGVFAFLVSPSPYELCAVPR

T1 sequence (O95180 whole entry): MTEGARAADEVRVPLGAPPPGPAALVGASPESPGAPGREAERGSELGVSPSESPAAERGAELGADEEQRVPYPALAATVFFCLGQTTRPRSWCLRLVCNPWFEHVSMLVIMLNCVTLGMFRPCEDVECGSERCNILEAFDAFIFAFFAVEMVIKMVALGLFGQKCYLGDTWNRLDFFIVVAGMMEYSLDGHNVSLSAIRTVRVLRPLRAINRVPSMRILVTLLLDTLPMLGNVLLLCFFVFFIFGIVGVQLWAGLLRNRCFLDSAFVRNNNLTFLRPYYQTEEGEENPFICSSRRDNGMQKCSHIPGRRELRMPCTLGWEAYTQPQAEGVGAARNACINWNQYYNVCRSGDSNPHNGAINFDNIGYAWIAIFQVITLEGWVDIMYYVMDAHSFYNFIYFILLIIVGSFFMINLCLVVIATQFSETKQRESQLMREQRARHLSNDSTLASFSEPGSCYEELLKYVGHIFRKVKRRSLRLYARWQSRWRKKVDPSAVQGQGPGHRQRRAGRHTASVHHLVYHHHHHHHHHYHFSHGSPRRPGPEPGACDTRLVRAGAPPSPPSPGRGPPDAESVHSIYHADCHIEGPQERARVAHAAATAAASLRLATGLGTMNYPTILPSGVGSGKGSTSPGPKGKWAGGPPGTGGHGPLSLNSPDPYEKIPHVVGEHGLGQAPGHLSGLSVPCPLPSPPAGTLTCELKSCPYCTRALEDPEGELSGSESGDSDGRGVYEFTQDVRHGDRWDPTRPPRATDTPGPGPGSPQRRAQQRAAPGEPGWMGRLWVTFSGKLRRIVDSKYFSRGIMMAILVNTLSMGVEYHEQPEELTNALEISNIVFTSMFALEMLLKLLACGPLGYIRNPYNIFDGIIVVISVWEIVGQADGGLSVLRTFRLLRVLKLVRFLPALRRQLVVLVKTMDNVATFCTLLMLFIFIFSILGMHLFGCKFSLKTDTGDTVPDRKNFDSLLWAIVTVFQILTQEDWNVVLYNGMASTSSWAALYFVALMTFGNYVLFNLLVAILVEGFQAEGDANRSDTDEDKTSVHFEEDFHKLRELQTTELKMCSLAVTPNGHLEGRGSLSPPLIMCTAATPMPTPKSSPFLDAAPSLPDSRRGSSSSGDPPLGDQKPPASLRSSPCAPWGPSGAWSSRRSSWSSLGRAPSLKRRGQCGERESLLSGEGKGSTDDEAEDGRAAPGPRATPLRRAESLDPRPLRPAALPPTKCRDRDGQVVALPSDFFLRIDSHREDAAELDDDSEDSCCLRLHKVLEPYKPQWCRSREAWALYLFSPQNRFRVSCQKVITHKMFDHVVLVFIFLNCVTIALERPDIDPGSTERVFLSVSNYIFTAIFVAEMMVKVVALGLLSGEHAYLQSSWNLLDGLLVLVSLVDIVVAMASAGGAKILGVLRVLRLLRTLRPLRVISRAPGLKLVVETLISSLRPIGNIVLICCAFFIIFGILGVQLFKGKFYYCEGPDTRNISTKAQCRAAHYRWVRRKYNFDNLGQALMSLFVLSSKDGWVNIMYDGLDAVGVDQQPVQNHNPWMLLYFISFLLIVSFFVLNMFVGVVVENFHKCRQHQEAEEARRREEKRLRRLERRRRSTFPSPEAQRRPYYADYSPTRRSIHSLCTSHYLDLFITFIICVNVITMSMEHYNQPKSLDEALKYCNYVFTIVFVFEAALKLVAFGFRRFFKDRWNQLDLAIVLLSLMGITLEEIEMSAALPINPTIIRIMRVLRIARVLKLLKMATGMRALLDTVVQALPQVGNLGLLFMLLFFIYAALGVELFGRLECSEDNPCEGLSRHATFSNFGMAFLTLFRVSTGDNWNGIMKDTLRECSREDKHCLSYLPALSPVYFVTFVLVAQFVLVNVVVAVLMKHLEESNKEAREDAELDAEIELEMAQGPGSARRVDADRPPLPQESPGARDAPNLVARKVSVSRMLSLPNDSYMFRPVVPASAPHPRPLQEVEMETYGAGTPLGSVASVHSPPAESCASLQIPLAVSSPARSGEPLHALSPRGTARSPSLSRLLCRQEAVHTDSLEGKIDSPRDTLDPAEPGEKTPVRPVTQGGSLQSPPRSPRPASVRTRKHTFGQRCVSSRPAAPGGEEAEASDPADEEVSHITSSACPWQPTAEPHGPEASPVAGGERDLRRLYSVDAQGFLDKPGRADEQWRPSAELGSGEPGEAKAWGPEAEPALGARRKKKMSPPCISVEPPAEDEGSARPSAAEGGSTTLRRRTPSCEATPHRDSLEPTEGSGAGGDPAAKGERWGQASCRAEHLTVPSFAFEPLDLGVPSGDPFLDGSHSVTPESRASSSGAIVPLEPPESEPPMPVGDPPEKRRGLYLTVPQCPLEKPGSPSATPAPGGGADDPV
Sequence of Neurotensin receptor type 1 (P30989 whole entry): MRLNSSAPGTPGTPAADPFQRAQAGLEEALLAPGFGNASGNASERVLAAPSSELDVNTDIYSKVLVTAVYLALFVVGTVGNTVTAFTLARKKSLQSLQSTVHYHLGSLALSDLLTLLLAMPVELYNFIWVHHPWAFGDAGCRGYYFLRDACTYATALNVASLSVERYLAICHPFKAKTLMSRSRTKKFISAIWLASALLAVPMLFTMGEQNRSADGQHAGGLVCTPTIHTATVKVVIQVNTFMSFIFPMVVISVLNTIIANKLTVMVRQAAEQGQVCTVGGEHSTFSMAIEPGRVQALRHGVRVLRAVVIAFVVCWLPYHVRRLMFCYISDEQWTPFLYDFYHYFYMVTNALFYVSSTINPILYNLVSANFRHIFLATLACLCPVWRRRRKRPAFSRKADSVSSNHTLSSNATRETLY
Sequence of Cyclin-dependent kinase 5/CDK5 activator 1 (Q00535 whole entry): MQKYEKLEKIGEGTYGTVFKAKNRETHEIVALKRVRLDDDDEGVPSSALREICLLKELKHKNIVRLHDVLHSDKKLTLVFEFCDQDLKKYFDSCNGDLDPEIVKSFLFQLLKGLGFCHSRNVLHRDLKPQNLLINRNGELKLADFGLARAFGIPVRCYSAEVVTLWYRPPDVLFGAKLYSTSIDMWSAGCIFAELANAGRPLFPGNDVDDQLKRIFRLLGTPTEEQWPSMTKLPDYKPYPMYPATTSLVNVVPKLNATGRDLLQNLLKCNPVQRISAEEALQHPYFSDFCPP
Sequence of Cyclin-dependent kinase 5/CDK5 activator 1 (Q15078 whole entry, further chain): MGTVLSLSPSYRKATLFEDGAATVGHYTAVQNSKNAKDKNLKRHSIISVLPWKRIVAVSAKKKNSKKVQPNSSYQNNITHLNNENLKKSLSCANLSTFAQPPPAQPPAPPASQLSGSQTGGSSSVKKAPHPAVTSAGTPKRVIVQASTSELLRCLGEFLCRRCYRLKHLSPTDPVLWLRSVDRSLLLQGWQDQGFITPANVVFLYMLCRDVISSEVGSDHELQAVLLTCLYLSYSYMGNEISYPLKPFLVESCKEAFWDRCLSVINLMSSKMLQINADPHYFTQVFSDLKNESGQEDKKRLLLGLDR
Sequence of G2/mitotic-specific cyclin-B1 (P14635 whole entry): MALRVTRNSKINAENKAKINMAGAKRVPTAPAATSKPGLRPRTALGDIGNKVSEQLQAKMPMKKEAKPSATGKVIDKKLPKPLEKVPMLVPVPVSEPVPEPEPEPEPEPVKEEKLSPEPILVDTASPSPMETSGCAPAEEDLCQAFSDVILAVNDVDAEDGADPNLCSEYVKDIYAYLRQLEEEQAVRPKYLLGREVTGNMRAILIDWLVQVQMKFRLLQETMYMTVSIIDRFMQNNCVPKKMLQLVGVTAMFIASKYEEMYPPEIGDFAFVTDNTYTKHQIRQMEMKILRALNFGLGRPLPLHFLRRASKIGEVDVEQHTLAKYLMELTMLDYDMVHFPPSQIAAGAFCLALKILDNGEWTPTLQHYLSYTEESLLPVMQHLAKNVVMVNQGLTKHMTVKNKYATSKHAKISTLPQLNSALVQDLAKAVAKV
Sequence of Phospholipase A2 (P04054 whole entry): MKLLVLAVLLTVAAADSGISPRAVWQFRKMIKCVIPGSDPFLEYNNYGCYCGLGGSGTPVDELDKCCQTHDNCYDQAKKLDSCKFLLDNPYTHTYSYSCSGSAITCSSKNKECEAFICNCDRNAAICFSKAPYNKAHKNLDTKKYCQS
Sequence of Beta Lactamase (Q932Y6 whole entry): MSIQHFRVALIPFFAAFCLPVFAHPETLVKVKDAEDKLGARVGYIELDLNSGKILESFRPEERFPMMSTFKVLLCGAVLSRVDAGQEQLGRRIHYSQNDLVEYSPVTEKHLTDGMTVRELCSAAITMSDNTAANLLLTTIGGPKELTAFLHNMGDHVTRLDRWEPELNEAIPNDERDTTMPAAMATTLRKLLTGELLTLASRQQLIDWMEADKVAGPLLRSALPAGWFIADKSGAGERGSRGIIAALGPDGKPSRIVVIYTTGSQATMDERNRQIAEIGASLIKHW

O=C(CN1CCC(n2nnc3cc(F)ccc32)CC1)Nc1ccc2c(c1)CCC2
CC50 [1]: > 50 µM (active)
EC50 [2]: 5.76 µM (active)
EC50 [3]: 6.67 µM (active)

COc1ccc(S(=O)(=O)Nc2c(C(=O)O)[nH]c3ccc(OC)cc23)c(OC)c1
AC50 [4]: 20.6 µM (active)

NS(=O)(=O)c1ccc(N2N=C(c3ccccc3)CC2c2ccccc2)cc1 (configuration not stated)
AC50 [5]: 66.6 µM (active)

O=C(/C=C/c1cccc(Cl)c1)c1nc2ccccc2[nH]1
EC50 [6]: 67 µM (inconclusive)
IC50 [7]: 7.7 µM (active)
EC50 [8]: 2.34 µM (active)
IC50 [9]: 5.08 µM (active)
EC50 [10]: 2.16 µM (active)
EC50 [11]: 2.2 µM (active)
EC50 [12]: 25.8 µM (inactive)
IC50 (Vero [13]): > 25 µM (active)
CC50 (Vero [14]): 12.1 µM (active)

COc1ccc(C)cc1NC(=O)CCCOc1cc(=O)n(C)c2ccccc12
EC50 (Wee1-like protein kinase): > 49.7 µM (inactive)
EC50 [15]: > 49.7 µM (inactive)

O=C1C(SCCO)=C(SCCO)C(=O)c2ccccc21
IC50 (Large T antigen): 26.6 µM (active)
CC50 [16]: 30.1 µM (active)
IC50 (Hexokinase HKDC1): 3.15 µM (active)
IC50 (Cysteine protease ATG4B): 12.8 µM (active)
IC50 (CHO): 0.479 µM (active)
IC50 (Phospholipase A2): 55.5 µM (inactive)
IC50 [17]: 12.7 µM (active)
IC50 (Beta Lactamase): 12.1 µM (inactive)
CC50 [18]: 24.5 µM (active)
IC50 [19]: 32.5 µM (active)
AC50 (Cytochrome P450 2D6): 31.6 µM (inconclusive)
